Patent US11459321B2, “Broad spectrum antiviral compositions and methods” (priority 2017, dated 2022)
pIC50: −log10 of the molar value.

Tested on: human cytomegalovirus (HCMV)
Assay: microbe, parasite or virus in culture
Assay type: cell-based
Details: Human MRCS cells, 0.01 IU per cell, virus yield at 7 days post infection, mCherry positive cells

Compound | pIC50 (Human betaherpesvirus 5, 168 h) | pIC50
O=C1NCCN1c1ccc2c(c1)CN(c1ncc(Cc3ccc(-c4ncccn4)cc3)s1)CC2 [Example 53] | < 5.38 | –
Cc1cnc(C)n1-c1ccc2c(c1)CN(c1ncc(Cc3ccc(N4CCOCC4)cc3)s1)CC2 [Example 47] | 6.10 | –
CS(=O)(=O)c1cccc(Cc2cnc(N3CCc4ccc(N5CCOC5=O)cc4C3)s2)c1 [Example 34] | 6.20 | –
CN1CCN(c2ccc3c(c2)CN(c2ncc(Cc4ccc(N5CCOC5=O)cc4)s2)CC3)C1=O [Example 57] | 6.13 | –
c1cnc(-c2ccc(Cc3cnc(N4CCc5ccc(N6CCOCC6)cc5C4)s3)cc2)nc1 [Example 54] | 5.96 | –
CN1CCN(c2ccc3c(c2)CN(c2ncc(Cc4ccc(-n5cccn5)cc4)s2)CC3)CC1=O [Example 70] | 5.67 | –
O=C1CCCN1c1ccc2c(c1)CN(c1ncc(Cc3ccc(N4CCOCC4)cc3)s1)CC2 [Example 50] | 6.21 | –
O=C1OCCN1c1ccc2c(c1)CN(c1ncc(Cc3ccc(N4CCS(=O)(=O)CC4)cc3)s1)CC2 [Example 36] | 6.18 | –
Cc1nc(-c2ccc3c(c2)CN(c2ncc(Cc4ccc(-n5cccn5)cc4)s2)CC3)no1 [Example 6] | 5.47 | –
O=C1OCCN1c1ccc2c(c1)CN(c1ncc(Cc3ccc(-c4ncccn4)cc3)s1)CC2 [Example 29] | 6.07 | –
COCCn1nncc1-c1ccc2c(c1)CN(c1ncc(Cc3ccc(-n4cccn4)cc3)s1)CC2 [Example 7] | 5.77 | –
O=C1CCCN1c1ccc2c(c1)CN(c1ncc(Cc3ccc(N4CCS(=O)(=O)CC4)cc3)s1)CC2 [Example 51] | 6.13 | –
O=C1CCCN1c1ccc2c(c1)CN(c1ncc(Cc3ccc(-c4ncccn4)cc3)s1)CC2 [Example 49] | 6.29 | –
O=C1NCCN1c1ccc2c(c1)CN(c1ncc(Cc3ccc(-n4cccn4)cc3)s1)CC2 [Example 25] | 6.04 | –
O=C1OCCN1c1ccc2c(c1)CN(c1ncc(Cc3ccc(C4CCOCC4)cc3)s1)CC2 [Example 62] | 6.44 | –
Cn1cc(-c2ccc3c(c2)CN(c2ncc(Cc4cccc(-n5cccn5)c4)s2)CC3)nn1 [Example 3] | 5.72 | –
c1cnn(-c2ccc(Cc3cnc(N4CCc5cc(-n6ccnc6)ccc5C4)s3)cc2)c1 [Example 18] | – | 5.97
COCCn1nncc1-c1ccc2c(c1)CN(c1ncc(Cc3cccc(-n4cccn4)c3)s1)CC2 [Example 8] | 5.70 | –
COCCN1CCCN(c2ccc3c(c2)CN(c2ncc(Cc4ccc(-n5cccn5)cc4)s2)CC3)C1=O [Example 45] | 5.75 | –
O=C1OCCN1c1ccc2c(c1)CN(c1ncc(Cc3cccc(N4CCOCC4)c3)s1)CC2 [Example 35] | 6.05 | –
O=C1OCCCN1c1ccc2c(c1)CN(c1ncc(Cc3ccc(-n4cccn4)cc3)s1)CC2 [Example 69] | 5.31 | –
N#Cc1cccc(Cc2cnc(N3CCc4ccc(N5CCOC5=O)cc4C3)s2)c1 [Example 39] | 5.56 | –
Cc1cn(-c2ccc(Cc3cnc(N4CCc5ccc(N6CCOC6=O)cc5C4)s3)cc2)c(C)n1 [Example 44] | 6.26 | –

Compound | pIC50 (Human betaherpesvirus 5, 168 h) | pIC50
CN1CCN(c2ccc3c(c2)CN(c2ncc(Cc4ccc(-c5ncccn5)cc4)s2)CC3)C1=O [Example 52] | 5.87 | –
O=C1COCCN1c1ccc2c(c1)CN(c1ncc(Cc3ccc(-n4cccn4)cc3)s1)CC2 [Example 42] | 5.61 | –
N#Cc1ccc(Cc2cnc(N3CCc4ccc(N5CCOC5=O)cc4C3)s2)cc1 [Example 30] | 5.35 | –
CN1CCCN(c2ccc3c(c2)CN(c2ncc(Cc4ccc(N5CCOCC5)cc4)s2)CC3)C1=O [Example 60] | 5.01 | –
Cc1cn(-c2ccc3c(c2)CN(c2nc(Cc4cccc(-n5cccn5)c4)cs2)CC3)c(C)n1 [Example 66] | 5.35 | –
Cc1cn(-c2ccc3c(c2)CN(c2ncc(Cc4ccc(-n5cccn5)cc4)s2)CC3)cn1 [Example 13] | 5.98 | –
O=C1OCCN1c1ccc2c(c1)CN(c1ncc(Cc3ccc(N4CCOCC4)cc3)s1)CC2 [Example 31] | 6.10 | –
Cc1cn(-c2ccc3c(c2)CN(c2ncc(Cc4cccc(-n5cccn5)c4)s2)CC3)c(C)n1 [Example 19] | 5.89 | –
c1cnn(-c2ccc(Cc3cnc(N4CCc5ccc(-c6ncc[nH]6)cc5C4)s3)cc2)c1 [Example 20] | 5.28 | –
COc1cc(Cc2cnc(N3CCc4ccc(-n5cc(C)nc5C)cc4C3)s2)ccc1-n1cccn1 [Example 27] | 6.46 | –
c1cc(Cc2cnc(N3CCc4ccc(-c5nc[nH]n5)cc4C3)s2)cc(-n2cccn2)c1 [Example 15] | 5.73 | –
CN1CCCN(c2ccc3c(c2)CN(c2ncc(Cc4ccc(C5CCOCC5)cc4)s2)CC3)C1=O [Example 59] | 6.14 | –
O=C1NCCCN1c1ccc2c(c1)CN(c1ncc(Cc3ccc(-n4cccn4)cc3)s1)CC2 [Example 37] | 5.00 | –
O=C1OCCN1c1ccc2c(c1)CN(c1ncc(Cc3ccc(-n4cccn4)nc3)s1)CC2 [Example 41] | 6.26 | –
O=C1OCCN1c1ccc2c(c1)CN(c1ncc(Cc3cccc(N4CCS(=O)(=O)CC4)c3)s1)CC2 [Example 33] | 6.04 | –
c1cn(-c2ccc(Cc3cnc(N4CCc5ccc(-n6ccnc6)cc5C4)s3)cc2)cn1 [Example 17] | 6.13 | –
c1cnn(-c2ccc(Cc3cnc(N4CCc5ccc(N6CCOCC6)cc5C4)s3)cc2)c1 [Example 72] | 6.27 | –
Cn1cc(-c2ccc3c(c2)CN(c2ncc(Cc4ccc(-n5cccn5)cc4)s2)CC3)nn1 [Example 2] | 5.93 | –
O=C1OCCN1c1ccc2c(c1)CN(c1ncc(Cc3cccc(-n4cccn4)c3)s1)CC2 [Example 28] | 5.72 | –
COCCn1cc(-c2ccc3c(c2)CN(c2ncc(Cc4ccc(-n5cccn5)cc4)s2)CC3)nn1 [Example 11] | 5.77 | –
O=C1OCCN1c1ccc2c(c1)CN(c1ncc(Cc3cncc(-n4cccn4)c3)s1)CC2 [Example 55] | 5.42 | –
COCCn1cc(-c2ccc3c(c2)CN(c2ncc(Cc4cccc(-n5cccn5)c4)s2)CC3)nn1 [Example 12] | 5.22 | –
O=C1OCCN1c1cccc(Cc2cnc(N3CCc4ccc(N5CCOC5=O)cc4C3)s2)c1 [Example 40] | 6.02 | –

Compound | pIC50 (Human betaherpesvirus 5, 168 h) | pIC50
O=C1CN(c2ccc3c(c2)CN(c2ncc(Cc4ccc(-n5cccn5)cc4)s2)CC3)CCN1 [Example 71] | 5.00 | –
Cc1cn(-c2ccc(Cc3cnc(N4CCc5ccc(-n6cc(C)nc6C)cc5C4)s3)cc2)c(C)n1 [Example 23] | 6.15 | –
CS(=O)(=O)c1ccc(Cc2cnc(N3CCc4ccc(N5CCOC5=O)cc4C3)s2)cc1 [Example 43] | 6.21 | –
Cc1cn(-c2ccc3c(c2)CN(c2ncc(Cc4ccc(N5CCOC5=O)cc4)s2)CC3)c(C)n1 [Example 56] | 6.50 | –
c1cnn(-c2ccc(Cc3cnc(N4CCc5ccc(-c6nc[nH]n6)cc5C4)s3)cc2)c1 [Example 16] | 6.70 | –
Cc1cn(-c2ccc3c(c2)CN(c2ncc(Cc4ccc(-n5cccn5)cc4)s2)CC3)c(C)n1 [Example 14] | 6.34 | –
Cc1cn(-c2ccc3c(c2)CN(c2ncc(Cc4cncc(-n5cccn5)c4)s2)CC3)c(C)n1 [Example 67] | 5.92 | –
c1cnn(-c2ccc(Cc3cnc(N4CCc5ccc(-c6c[nH]nn6)cc5C4)s3)cc2)c1 [Example 5] | 6.09 | –
c1cc(Cc2cnc(N3CCc4ccc(-c5c[nH]nn5)cc4C3)s2)cc(-n2cccn2)c1 [Example 4] | 6.12 | –
O=C1CCCN1c1ccc2c(c1)CN(c1ncc(Cc3ccc(-n4cccn4)cc3)s1)CC2 [Example 73] | 6.37 | –
CN1CCCN(c2ccc3c(c2)CN(c2ncc(Cc4ccc(S(C)(=O)=O)cc4)s2)CC3)C1=O [Example 61] | 5.33 | –
Cc1cn(-c2ccc3c(c2)CN(c2ncc(Cc4ccc(N5CCOCC5)cc4)s2)CC3)c(C)n1 [Example 46] | 6.22 | –
c1cnn(-c2ccc(Cc3cnc(N4CCc5ccc(-n6ccnc6)cc5C4)s3)cc2)c1 [Example 9] | 6.32 | –
COc1ccc(Cc2cnc(N3CCc4ccc(-n5cc(C)nc5C)cc4C3)s2)cc1-n1cccn1 [Example 22] | 6.51 | –
O=C1OCCN1c1ccc2c(c1)CN(c1ncc(Cc3ccc(-n4cccn4)cc3)s1)CC2 [Example 24] | 6.45 | –
O=C1OCCN1c1ccc(Cc2cnc(N3CCc4ccc(N5CCOC5=O)cc4C3)s2)cc1 [Example 32] | 6.01 | –
Cc1cn(-c2ccc3c(c2)CN(c2ncc(Cc4ccc(N5CCS(=O)(=O)CC5)cc4)s2)CC3)c(C)n1 [Example 48] | 6.71 | –
Cc1cn(-c2ccc3c(c2)CN(c2ncc(Cc4cccc(-n5cccn5)c4)s2)CC3)cn1 [Example 21] | 5.58 | –
CN1CCCN(c2ccc3c(c2)CN(c2ncc(Cc4ccc(-n5cccn5)cc4)s2)CC3)C1=O [Example 38] | 5.46 | –
O=C1OCCN1c1ccc(Cc2cnc(N3CCc4ccc(N5CCOCC5)cc4C3)s2)cc1 [Example 58] | 5.95 | –
CC(C)c1cc(Cc2cnc(N3CCc4ccc(-c5cn(C)nn5)cc4C3)s2)cc(-n2cccn2)c1 [Example 1] | 4.93 | –
CN1CCN(c2ccc3c(c2)CN(c2ncc(Cc4ccc(-n5cccn5)cc4)s2)CC3)C1=O [Example 26] | 6.20 | –
